Source: patent US8344018B2, “Oxindolyl inhibitor compounds” (Gilead Sciences, Inc., priority 2008, dated 2013)
“And” between values parts separate entries of the source, which are not always exact repeats. Equal entries are not always repeated.

Tests used:
CDK2 = CDK2 (Homo sapiens, UniProt P24941); test: CDK2 inhibition; type: biochemical; conditions: two numbers = two different lots of the compound
HDAC 1 = HDAC 1 (Homo sapiens, UniProt Q13547); test: HDAC 1 fluorescence assay with about 3 hours preincubation; type: biochemical; conditions: 3-hour preincubation of enzyme and compound; two numbers = two different lots of the compound; read-out: HDAC 1 inhibitory activity (IC50 [μM]) (3-hour preincubation)
Method: The second assay is similar to the first assay described above, except that preincubation is carried out for about 3 hours after the enzyme is introduced. The test compound was suspended in, and titrated in DMSO. It was then spotted into a 384-well test plate. The enzyme, HDAC 1, was diluted in the same assay buffer as used in the previous assay and added to the pre-spotted compound. The enzyme/compound mix was incubated at room temperature for about 3 hours. The peptide substrate containing a fluorophore/quencher pair was diluted in the assay buffer and added to the compound/enzyme mix initiating the reaction. The reaction incubated at room temperature for 45 minutes. A concentrated developer solution was diluted in the assay buffer, and added to the reaction. The reaction was incubated at room temperature for about 15 minutes and relative fluorescence was read on an instrument reader.
Where two numbers are given, the values are reported for measurements on two different lots of the compound.

HDAC 1, sequence (Q13547 whole entry, species assumed): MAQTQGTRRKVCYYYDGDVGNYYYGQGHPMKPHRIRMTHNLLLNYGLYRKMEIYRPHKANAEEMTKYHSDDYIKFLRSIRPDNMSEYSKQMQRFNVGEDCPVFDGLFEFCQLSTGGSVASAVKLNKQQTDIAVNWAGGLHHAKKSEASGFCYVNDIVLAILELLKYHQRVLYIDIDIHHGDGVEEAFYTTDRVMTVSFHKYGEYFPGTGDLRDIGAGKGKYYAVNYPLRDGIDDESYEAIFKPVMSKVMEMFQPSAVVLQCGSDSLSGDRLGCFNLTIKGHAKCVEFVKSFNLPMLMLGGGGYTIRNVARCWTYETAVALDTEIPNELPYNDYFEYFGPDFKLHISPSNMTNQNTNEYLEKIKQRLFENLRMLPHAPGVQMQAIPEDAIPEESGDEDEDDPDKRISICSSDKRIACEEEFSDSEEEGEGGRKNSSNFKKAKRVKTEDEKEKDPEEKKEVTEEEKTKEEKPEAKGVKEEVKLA

SMILES | IC50 (CDK2) | IC50 (HDAC 1)
COC(=O)c1ccc2c(c1)/C(=C/Nc1ccc(C(=O)Nc3ccccc3N)cc1)C(=O)N2 [Example 2, 3-{[4-(2-Amino-phenylcarbamoyl)-phenylamino]-methylene}-2-oxo-2,3-dihydro-1H-indole-5-carboxylic acid methyl ester] | 0.07 µM | 0.17 µM
COC(=O)c1ccc2c(c1)/C(=C(\C)Nc1ccc(C(=O)NO)cc1)C(=O)N2 [Example 11, 3-[1-(4-Hydroxycarbamoyl-phenylamino)-ethylidene]-2-oxo-2,3-dihydro-1H-indole-5-carboxylic acid methyl ester] | > 40 µM | 0.635 µM
C/C(Nc1ccc(C(=O)Nc2ccccc2N)cc1)=C1/C(=O)Nc2ccc(C(=O)C(C)C)cc21 [Example 5, N-(2-Amino-phenyl)-4-[1-(5-isobutyryl-2-oxo-1,2-dihydro-indol-3-ylidene)-ethylamino]-benzamide] | 0.02 µM | 0.335 µM
C/C(Nc1ccc(C(=O)Nc2ccccc2N)cc1)=C1/C(=O)Nc2ccc(C(=O)N(C)C)cc21 [Example 12, 3-{1-[4-(2-Amino-phenylcarbamoyl)-phenylamino]-ethylidene}-2-oxo-2,3-dihydro-1H-indole-5-carboxylic acid dimethylamide] | 0.34 µM | 0.071 µM
CN(C)CCNC(=O)c1ccc2c(c1)/C(=C/Nc1ccc(C(=O)Nc3ccccc3N)cc1)C(=O)N2 [Example 9, 3-{[4-(2-Amino-phenylcarbamoyl)-phenylamino]-methylene}-2-oxo-2,3-dihydro-1H-indole-5-carboxylic acid (2-dimethylamino-ethyl)-amide] | 0.25 µM | 0.063 µM
C/C(Nc1ccc(C(=O)Nc2ccccc2N)cc1)=C1/C(=O)Nc2ccc(-c3csc(C)n3)cc21 [Example 7, N-(2-Amino-phenyl)-4-{1-[5-(2-methyl-thiazol-4-yl)-2-oxo-1,2-dihydro-indol-3-ylidene]-ethylamino}-benzamide] | > 40 µM | 0.232 µM
C/C(Nc1ccc(C(=O)Nc2ccccc2N)cc1)=C1/C(=O)Nc2ccc(S(=O)(=O)N3CCOCC3)cc21 [Example 6, N-(2-Amino-phenyl)-4-{1-[5-(morpholine-4-sulfonyl)-2-oxo-1,2-dihydro-indol-3-ylidene]-ethylamino}-benzamide] | 0.52 µM | 0.186 µM

More lines, now with the values ahead:

IC50 (CDK2) | IC50 (HDAC 1) | SMILES
1.01 µM | 0.036 µM | C/C(Nc1ccc(C(=O)Nc2ccccc2N)cc1)=C1/C(=O)Nc2ccc(C(C)O)cc21 (centres unmarked) [Example 13, N-(2-Amino-phenyl)-4-{1-[5-(1-hydroxy-ethyl)-2-oxo-1,2-dihydro-indol-3-ylidene]-ethylamino}-benzamide]
0.13 µM | 0.1 µM | CC(Nc1ccc(C(=O)Nc2ccccc2N)cc1)=C1C(=O)Nc2ccc(S(C)(=O)=O)cc21 [Example 8, N-(2-Amino-phenyl)-4-[1-(5-methanesulfonyl-2-oxo-1,2-dihydro-indol-3-ylidene)-ethylamino]-benzamide]
0.043 µM | 0.033 µM | COC(=O)c1ccc2c(c1)/C(=C(\C)Nc1ccc(C(=O)Nc3ccccc3N)cc1)C(=O)N2 [Example 1, 3-{1-[4-(2-Amino-phenylcarbamoyl)-phenylamino]-ethylidene}-2-oxo-2,3-dihydro-1H-indole-5-carboxylic acid methyl ester]
0.01 µM and 0.02 µM | 0.029 µM and 0.021 µM | C/C(Nc1ccc(C(=O)Nc2ccccc2N)cc1)=C1/C(=O)Nc2ccc(C#N)cc21 [Example 3, N-(2-Amino-phenyl)-4-[1-(5-cyano-2-oxo-1,2-dihydro-indol-3-ylidene)-ethylamino]-benzamide]
0.44 µM | 0.181 µM | C/C(Nc1ccc(C(=O)Nc2ccccc2N)cc1)=C1/C(=O)Nc2ccc(C(=O)O)cc21 [Example 10, 3-{1-[4-(2-Amino-phenylcarbamoyl)-phenylamino]-ethylidene}-2-oxo-2,3-dihydro-1H-indole-5-carboxylic acid]
0.01 µM | 0.064 µM and 0.03 µM | CC(=O)c1ccc2c(c1)/C(=C(\C)Nc1ccc(C(=O)Nc3ccccc3N)cc1)C(=O)N2 [Example 4, 4-[1-(5-Acetyl-2-oxo-1,2-dihydro-indol-3-ylidene)-ethylamino]-N-(2-amino-phenyl)-benzamide]
